Reference: ChEMBL document CHEMBL5465560, “Selectivity Literature for EUbOPEN Chemogenomic Library” (2024)

Key:
[1] = biological target: T1, Histone-arginine methyltransferase CARM1 (Homo sapiens) (UniProt Q86X55); conditions: at 1 µM
T1 sequence (whole entry): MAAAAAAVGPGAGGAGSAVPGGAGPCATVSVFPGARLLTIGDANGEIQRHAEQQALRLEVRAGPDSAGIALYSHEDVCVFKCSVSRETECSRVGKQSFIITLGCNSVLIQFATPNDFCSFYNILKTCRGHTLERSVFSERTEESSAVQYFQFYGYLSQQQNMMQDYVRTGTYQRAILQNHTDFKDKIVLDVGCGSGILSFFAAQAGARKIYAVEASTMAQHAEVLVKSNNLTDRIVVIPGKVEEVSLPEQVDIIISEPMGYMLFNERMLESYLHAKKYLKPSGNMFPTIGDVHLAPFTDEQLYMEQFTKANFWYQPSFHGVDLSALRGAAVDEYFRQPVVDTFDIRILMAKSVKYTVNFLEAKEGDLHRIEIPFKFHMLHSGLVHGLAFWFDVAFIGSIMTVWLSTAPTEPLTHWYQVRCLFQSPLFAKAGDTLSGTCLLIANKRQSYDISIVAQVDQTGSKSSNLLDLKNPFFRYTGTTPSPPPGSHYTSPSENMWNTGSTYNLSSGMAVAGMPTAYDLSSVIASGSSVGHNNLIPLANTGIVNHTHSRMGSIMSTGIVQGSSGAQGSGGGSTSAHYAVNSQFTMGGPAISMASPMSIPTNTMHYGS

[2] = biological target: T2, Rhodopsin kinase GRK7 (Homo sapiens) (UniProt Q8WTQ7); test: Selectivity interaction (KinomeScan (DiscoverX)) EUB0000666a GRK7; conditions: at 10 µM
T2 sequence (whole entry): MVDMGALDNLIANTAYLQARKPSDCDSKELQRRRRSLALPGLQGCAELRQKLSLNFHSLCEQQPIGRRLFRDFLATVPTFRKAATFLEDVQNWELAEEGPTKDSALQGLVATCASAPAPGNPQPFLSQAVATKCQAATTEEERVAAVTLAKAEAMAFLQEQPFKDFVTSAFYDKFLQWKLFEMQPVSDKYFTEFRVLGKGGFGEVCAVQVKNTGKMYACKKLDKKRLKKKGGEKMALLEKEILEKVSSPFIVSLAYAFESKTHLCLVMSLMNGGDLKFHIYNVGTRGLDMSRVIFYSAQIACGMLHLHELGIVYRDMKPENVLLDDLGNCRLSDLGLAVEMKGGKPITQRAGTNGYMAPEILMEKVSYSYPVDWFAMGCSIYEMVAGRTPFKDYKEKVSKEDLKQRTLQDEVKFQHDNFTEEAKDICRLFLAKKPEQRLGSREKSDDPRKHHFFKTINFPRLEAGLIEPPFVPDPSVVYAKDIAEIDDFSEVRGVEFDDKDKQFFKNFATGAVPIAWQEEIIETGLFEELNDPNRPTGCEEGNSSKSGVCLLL

[3] = Selectivity interaction (PWWP, WD40, and Tudor domain panel (DSLS measurements, literature)) EUB0000270b SCML2
[4] = biological target: Protein-tyrosine kinase 2-beta (Homo sapiens) (UniProt Q14289); test: Selectivity interaction (Kinase screening (Nanosyn)) EUB0000604a PTK2B
[5] = biological target: Dual specificity mitogen-activated protein kinase kinase 1 (Homo sapiens, UniProt Q02750); test: Selectivity interaction (KinomeScan (DiscoverX)) EUB0001049a MAP2K1; conditions: at 1 µM
[6] = biological target: T3, Serine/threonine-protein kinase Chk1 (Homo sapiens) (UniProt O14757); test: Selectivity interaction (KinomeScan (DiscoverX)) EUB0000618a CHEK1; conditions: at 10 µM
T3 sequence (whole entry): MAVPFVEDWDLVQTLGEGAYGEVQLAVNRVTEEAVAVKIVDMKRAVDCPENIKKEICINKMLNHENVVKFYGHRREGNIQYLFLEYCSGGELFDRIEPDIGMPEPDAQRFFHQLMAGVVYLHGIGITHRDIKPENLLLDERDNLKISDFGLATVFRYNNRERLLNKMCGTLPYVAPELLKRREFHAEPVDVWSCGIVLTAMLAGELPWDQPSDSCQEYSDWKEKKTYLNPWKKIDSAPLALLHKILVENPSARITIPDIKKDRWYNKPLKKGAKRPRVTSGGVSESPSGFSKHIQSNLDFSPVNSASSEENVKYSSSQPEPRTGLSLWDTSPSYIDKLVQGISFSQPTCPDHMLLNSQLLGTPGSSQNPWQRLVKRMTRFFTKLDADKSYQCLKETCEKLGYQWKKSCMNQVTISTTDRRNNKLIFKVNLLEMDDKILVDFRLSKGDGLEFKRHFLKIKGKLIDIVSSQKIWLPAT

[7] = biological target: Calcium/calmodulin-dependent protein kinase type II subunit beta (Homo sapiens) (UniProt Q13554); test: Selectivity interaction (Kinase panel (Invitrogen)) EUB0000639a CAMK2B; conditions: at 200 nM
[8] = biological target: Ribosomal protein S6 kinase alpha-3 (Homo sapiens, UniProt P51812); test: Selectivity interaction (Kinase panel (Invitrogen)) EUB0000639a RPS6KA3; conditions: at 200 nM
[9] = biological target: Insulin receptor-related protein (Homo sapiens) (UniProt P14616); test: Selectivity interaction (KinomeScan (DiscoverX)) EUB0000655a INSRR; conditions: at 10 µM
[10] = biological target: MAP kinase-interacting serine/threonine-protein kinase 1 (Homo sapiens) (UniProt Q9BUB5); test: Selectivity interaction (KinomeScan (DiscoverX)) EUB0000655a MKNK1; conditions: at 10 µM
[11] = biological target: Mitogen-activated protein kinase 8 (Homo sapiens, UniProt P45983); conditions: at 10 µM
[12] = biological target: Cyclin-dependent kinase 5 (Homo sapiens, UniProt Q00535); test: Selectivity interaction (Ambit KINOMEscan and KiNATiv profiling in Jurkat cells) EUB0000090b CDK5; format: cell-based; conditions: at 1 µM
Sequence of Cyclin-dependent kinase 5 (Q00535 whole entry, looked up): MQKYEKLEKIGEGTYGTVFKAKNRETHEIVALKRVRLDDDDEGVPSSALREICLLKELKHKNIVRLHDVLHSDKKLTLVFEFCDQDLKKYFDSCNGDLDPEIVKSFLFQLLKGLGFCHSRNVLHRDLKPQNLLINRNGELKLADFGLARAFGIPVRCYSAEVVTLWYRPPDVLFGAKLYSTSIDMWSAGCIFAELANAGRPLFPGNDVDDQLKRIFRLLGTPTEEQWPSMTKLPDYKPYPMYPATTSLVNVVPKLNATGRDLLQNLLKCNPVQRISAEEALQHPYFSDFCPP

Sequence of Dual specificity mitogen-activated protein kinase kinase 1 (Q02750 whole entry): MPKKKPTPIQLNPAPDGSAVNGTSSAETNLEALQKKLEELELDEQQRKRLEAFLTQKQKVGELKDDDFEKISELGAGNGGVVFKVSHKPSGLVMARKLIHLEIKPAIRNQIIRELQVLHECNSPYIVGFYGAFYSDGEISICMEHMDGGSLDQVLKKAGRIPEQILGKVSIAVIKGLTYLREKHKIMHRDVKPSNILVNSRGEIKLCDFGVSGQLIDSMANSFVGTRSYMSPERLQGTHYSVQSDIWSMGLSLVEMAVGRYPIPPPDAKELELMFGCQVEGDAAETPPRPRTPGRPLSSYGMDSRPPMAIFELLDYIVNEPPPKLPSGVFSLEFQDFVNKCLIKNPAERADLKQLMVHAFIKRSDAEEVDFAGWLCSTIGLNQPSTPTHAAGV
Sequence of Mitogen-activated protein kinase 8 (P45983 whole entry): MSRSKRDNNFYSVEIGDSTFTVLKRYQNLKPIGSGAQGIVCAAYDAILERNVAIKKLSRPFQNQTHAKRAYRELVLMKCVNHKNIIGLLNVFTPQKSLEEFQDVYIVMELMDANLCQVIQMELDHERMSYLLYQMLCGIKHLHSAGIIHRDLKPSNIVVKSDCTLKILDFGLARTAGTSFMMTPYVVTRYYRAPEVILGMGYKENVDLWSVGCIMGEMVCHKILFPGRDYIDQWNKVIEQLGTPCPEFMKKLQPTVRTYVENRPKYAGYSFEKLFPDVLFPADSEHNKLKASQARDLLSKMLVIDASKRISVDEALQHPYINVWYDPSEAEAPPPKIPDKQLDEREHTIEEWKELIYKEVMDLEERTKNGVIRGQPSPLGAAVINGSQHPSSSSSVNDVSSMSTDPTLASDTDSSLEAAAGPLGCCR
Sequence of Protein-tyrosine kinase 2-beta (Homo sapiens) (Q14289 whole entry, looked up): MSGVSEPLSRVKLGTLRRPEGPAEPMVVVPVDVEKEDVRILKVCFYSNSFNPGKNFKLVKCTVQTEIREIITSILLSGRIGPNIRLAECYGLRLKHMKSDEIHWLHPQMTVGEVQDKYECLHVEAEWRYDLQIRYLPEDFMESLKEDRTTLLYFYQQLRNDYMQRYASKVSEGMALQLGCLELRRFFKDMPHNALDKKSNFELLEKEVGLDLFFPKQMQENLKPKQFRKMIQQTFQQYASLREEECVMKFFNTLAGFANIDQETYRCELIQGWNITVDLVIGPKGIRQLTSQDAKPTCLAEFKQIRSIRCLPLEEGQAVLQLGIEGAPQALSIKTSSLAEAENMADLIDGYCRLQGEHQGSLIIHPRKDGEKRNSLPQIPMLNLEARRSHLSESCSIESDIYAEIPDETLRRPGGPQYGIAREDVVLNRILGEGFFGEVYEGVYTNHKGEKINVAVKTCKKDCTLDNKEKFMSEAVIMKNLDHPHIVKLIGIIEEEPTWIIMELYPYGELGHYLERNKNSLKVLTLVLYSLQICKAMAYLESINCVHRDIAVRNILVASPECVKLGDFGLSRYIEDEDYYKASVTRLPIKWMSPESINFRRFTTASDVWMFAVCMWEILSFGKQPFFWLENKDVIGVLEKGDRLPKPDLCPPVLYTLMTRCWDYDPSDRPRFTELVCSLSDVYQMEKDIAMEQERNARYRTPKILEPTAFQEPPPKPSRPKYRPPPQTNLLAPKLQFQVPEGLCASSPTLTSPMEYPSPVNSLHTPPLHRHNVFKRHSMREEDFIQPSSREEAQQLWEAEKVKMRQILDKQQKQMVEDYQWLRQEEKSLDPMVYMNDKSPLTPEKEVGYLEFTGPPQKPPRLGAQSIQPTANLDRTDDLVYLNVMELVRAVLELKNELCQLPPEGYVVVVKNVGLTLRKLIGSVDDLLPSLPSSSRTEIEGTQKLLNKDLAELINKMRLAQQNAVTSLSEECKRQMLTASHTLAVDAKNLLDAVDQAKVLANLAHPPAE
Sequence of Calcium/calmodulin-dependent protein kinase type II subunit beta (Homo sapiens) (Q13554 whole entry): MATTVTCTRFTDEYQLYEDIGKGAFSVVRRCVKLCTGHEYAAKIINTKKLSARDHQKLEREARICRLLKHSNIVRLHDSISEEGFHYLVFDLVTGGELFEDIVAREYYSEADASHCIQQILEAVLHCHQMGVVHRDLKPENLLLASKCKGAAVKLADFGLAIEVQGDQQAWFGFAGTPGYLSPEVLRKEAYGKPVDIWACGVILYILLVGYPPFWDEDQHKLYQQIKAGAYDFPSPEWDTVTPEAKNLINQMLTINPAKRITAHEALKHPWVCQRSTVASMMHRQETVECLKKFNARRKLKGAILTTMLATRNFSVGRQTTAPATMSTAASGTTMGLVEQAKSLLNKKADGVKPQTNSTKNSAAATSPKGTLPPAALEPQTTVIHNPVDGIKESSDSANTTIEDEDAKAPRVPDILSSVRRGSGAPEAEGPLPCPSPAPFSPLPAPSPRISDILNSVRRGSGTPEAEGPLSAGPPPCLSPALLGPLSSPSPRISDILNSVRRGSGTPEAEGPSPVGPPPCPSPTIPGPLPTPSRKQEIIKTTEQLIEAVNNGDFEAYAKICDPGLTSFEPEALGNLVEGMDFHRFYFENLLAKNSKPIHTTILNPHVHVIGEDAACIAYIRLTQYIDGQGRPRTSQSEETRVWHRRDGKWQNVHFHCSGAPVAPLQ
Sequence of Insulin receptor-related protein (Homo sapiens) (P14616 27-742 limits assumed): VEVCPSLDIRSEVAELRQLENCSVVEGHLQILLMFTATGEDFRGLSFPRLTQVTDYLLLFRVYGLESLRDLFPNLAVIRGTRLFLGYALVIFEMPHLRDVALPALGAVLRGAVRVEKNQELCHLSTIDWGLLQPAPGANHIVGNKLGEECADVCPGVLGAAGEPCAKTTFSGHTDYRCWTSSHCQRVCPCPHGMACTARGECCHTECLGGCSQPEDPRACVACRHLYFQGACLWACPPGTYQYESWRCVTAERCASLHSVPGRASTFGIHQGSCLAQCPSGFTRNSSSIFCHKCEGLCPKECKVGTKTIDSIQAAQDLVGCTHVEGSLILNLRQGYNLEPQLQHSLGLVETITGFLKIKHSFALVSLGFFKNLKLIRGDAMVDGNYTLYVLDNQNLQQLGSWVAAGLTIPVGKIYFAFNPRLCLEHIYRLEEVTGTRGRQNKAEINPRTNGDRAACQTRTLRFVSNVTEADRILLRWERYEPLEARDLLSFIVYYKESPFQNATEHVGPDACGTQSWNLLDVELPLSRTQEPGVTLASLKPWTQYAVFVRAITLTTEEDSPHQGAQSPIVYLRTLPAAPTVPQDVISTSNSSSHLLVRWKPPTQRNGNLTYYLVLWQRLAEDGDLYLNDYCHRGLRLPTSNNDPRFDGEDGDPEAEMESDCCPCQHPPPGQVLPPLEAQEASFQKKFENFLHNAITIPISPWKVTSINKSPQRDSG
Sequence of Insulin receptor-related protein (Homo sapiens) (P14616 747-1297 limits assumed): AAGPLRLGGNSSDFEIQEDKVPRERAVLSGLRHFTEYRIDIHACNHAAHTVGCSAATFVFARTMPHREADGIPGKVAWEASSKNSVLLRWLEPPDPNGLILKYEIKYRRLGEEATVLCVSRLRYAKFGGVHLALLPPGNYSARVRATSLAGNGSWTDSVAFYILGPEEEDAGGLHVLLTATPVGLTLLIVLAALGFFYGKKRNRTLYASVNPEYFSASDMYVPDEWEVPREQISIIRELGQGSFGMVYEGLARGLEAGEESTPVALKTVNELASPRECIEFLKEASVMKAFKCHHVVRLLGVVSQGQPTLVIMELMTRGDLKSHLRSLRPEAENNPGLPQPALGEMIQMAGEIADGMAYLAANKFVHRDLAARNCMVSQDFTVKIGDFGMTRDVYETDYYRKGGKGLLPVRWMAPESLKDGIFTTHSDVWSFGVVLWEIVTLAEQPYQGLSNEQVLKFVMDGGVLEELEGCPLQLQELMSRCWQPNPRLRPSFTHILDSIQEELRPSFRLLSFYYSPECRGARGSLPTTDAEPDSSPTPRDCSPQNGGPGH
Sequence of MAP kinase-interacting serine/threonine-protein kinase 1 (Homo sapiens) (Q9BUB5 whole entry, looked up): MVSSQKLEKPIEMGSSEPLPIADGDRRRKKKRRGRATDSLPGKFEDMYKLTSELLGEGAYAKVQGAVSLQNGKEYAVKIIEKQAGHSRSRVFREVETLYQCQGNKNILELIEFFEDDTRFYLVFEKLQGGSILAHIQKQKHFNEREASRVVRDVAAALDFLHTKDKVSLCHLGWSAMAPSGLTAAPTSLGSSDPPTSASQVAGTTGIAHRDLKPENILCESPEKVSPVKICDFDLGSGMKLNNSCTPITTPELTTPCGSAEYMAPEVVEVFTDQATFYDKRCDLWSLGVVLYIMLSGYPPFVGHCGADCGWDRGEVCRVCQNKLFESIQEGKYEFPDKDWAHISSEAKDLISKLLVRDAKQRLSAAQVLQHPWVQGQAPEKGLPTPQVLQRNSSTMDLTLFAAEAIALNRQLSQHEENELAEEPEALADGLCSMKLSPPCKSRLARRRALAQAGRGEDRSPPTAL

Q: For `CNCCN1CCC(c2cc(CN(C)C(=O)c3cccc(Oc4ccccc4)c3)ccn2)CC1`, which % activity [1] is on record?
A: 75%

Q: Which % of control [2] does the source give for `O=C(NOC[C@H](O)CO)c1ccc(F)c(F)c1Nc1ccc(I)cc1F` here?
A: 100%

Q: For `Cc1cc(CN)cc(C)c1-c1ncn(C)c1-c1cncn1C`, which dTagg [3] is on record?
A: 0.2 K

Q: For `Cc1cnc(Nc2ccc(F)cc2Cl)nc1-c1c[nH]c(C(=O)N[C@H](CO)c2cccc(Cl)c2)c1`, which % of inhibition [4] is on record?
A: 6%

Q: Which % of control [5] does the source give for `COc1cc(Nc2nc(C)cc(-c3cnn4nc(OC)ccc34)n2)cc(C(F)(F)F)c1` here?
A: 80%

Q: For `O[C@H]1CC[C@H](Nc2ncc3nc(Nc4c(F)cc(F)cc4F)n([C@H]4CCOC4)c3n2)CC1`, which % of control [6] is on record?
A: 97%

Q: What does the source list for `CC[C@@H]1[C@H](F)C(=O)N[C@@H]1COc1nccc2cc(C(N)=O)c(OC)cc12` [ZIMLOVISERTIB]?
A: % of inhibition [7]: 10.8%; % of inhibition [8]: -6.31%

Q: Which % of control [9] does the source give for `CN(C)CCOc1ccc(-c2nc(-c3ccncc3)c(-c3ccc4c(c3)CC/C4=N\O)[nH]2)cc1` here?
A: 100%

Q: What about the % of control [10] of the same compound?
A: 81%

Q: For `CCN(CC)CCCCNc1ncc2cc(-c3cc(OC)cc(OC)c3)c(NC(=O)NC(C)(C)C)nc2n1`, which % of control [11] is on record?
A: 100%

Q: Which % of control [12] does the source give for `CN(C)C/C=C/C(=O)Nc1ccc(C(=O)N2CCCC(Nc3ncc(Cl)c(-c4c[nH]c5ccccc45)n3)C2)cc1` (configuration not stated) here?
A: 89%
